Test results as given in PubChem BioAssay AID1845213 (Molecular Pharmacology Branch, DTP, NCI, 2023).

System: NCI-H841 complex tumor spheroid viability
Assay: Anticancer human tumor NCI-H841 cell line growth inhibition;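 also: spheroids exposed to compounds for 7 days before readout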;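 as to viability, T/C: 100% = DMSO vehicle control wells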
Details: for IC50: curve of first compound; for viability, T/C: stronger effect = lower value
In short: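 Complex tumor spheroids combined malignant cells with endothelial cells and mesenchymal stem cells. DNA-damaging drugs and DNA repair inhibitors were tested alone and in combination, at half-log dilutions down from clinical Cmax (top 10 microM if Cmax unknown), 0.25% DMSO final.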

[1] = second compound 30 pM, first compound 0.0316 µM
[2] = second compound 30 pM, first compound 0.1 µM
[3] = second compound 30 pM, first compound 0.316 µM
[4] = second compound 30 pM, first compound 1 µM
[5] = second compound 30 pM, first compound 3.16 µM
[6] = second compound 30 pM, first compound 10 µM
[7] = second compound 94.9 pM, first compound 0.0316 µM
[8] = second compound 94.9 pM, first compound 0.1 µM
[9] = second compound 94.9 pM, first compound 0.316 µM
[10] = second compound 94.9 pM, first compound 1 µM
[11] = second compound 94.9 pM, first compound 3.16 µM
[12] = second compound 94.9 pM, first compound 10 µM
[13] = second compound 0.0003 µM, first compound 0.0316 µM
[14] = second compound 0.0003 µM, first compound 0.1 µM
[15] = second compound 0.0003 µM, first compound 0.316 µM
[16] = second compound 0.0003 µM, first compound 1 µM
[17] = second compound 0.0003 µM, first compound 3.16 µM
[18] = second compound 0.0003 µM, first compound 10 µM
[19] = second compound 0.000949 µM, first compound 0.0316 µM
[20] = second compound 0.000949 µM, first compound 0.1 µM
[21] = second compound 0.000949 µM, first compound 0.316 µM
[22] = second compound 0.000949 µM, first compound 1 µM
[23] = second compound 0.000949 µM, first compound 3.16 µM
[24] = second compound 0.000949 µM, first compound 10 µM
[25] = second compound 0.003 µM, first compound 0.0316 µM
[26] = second compound 0.003 µM, first compound 0.1 µM
[27] = second compound 0.003 µM, first compound 0.316 µM
[28] = second compound 0.003 µM, first compound 1 µM
[29] = second compound 0.003 µM, first compound 3.16 µM
[30] = second compound 0.003 µM, first compound 10 µM

Compound: CC(C)n1c(=O)n(C)c2cnc3cc(F)c(-c4ccc(OCCCN5CCCCC5)nc4)cc3c21 + COc1cc2c(cc1O)CCNC21CSC2c3c(OC(C)=O)c(C)c4c(c3C(COC1=O)N1C(O)C3Cc5cc(C)c(OC)c(O)c5C(C21)N3C)OCO4
- IC50 (second compound 30 pM): > 10000 nM
- IC50 (second compound 94.9 pM): < 31.6 nM
- IC50 (second compound 0.0003 µM): < 31.6 nM
- IC50 (second compound 0.000949 µM): < 31.6 nM
- IC50 (second compound 0.003 µM): < 31.6 nM
- viability, T/C [1]: 83.8%
- viability, T/C [2]: 79.7%
- viability, T/C [3]: 78.9%
- viability, T/C [4]: 79.1%
- viability, T/C [5]: 79.1%
- viability, T/C [6]: 69.5%
- viability, T/C [7]: 40.4%
- viability, T/C [8]: 34.5%
- viability, T/C [9]: 32%
- viability, T/C [10]: 25.9%
- viability, T/C [11]: 26.2%
- viability, T/C [12]: 18%
- viability, T/C [13]: 3.09%
- viability, T/C [14]: 3.02%
- viability, T/C [15]: 2.66%
- viability, T/C [16]: 2.5%
- viability, T/C [17]: 2.79%
- viability, T/C [18]: 2%
- viability, T/C [19]: 2.82%
- viability, T/C [20]: 3.14%
- viability, T/C [21]: 3.38%
- viability, T/C [22]: 2.32%
- viability, T/C [23]: 2.06%
- viability, T/C [24]: 1.47%
- viability, T/C [25]: 0.11%
- viability, T/C [26]: 0.12%
- viability, T/C [27]: 0.11%
- viability, T/C [28]: 0.1%
- viability, T/C [29]: 0.1%
- viability, T/C [30]: 0.15%

Compound: COc1ccc([C@@H](O)c2cc(-c3ncnc4cc(N5CCOCC5)ccc34)c(F)cc2Cl)nn1 + COc1cc2c(cc1O)CCNC21CSC2c3c(OC(C)=O)c(C)c4c(c3C(COC1=O)N1C(O)C3Cc5cc(C)c(OC)c(O)c5C(C21)N3C)OCO4
- IC50 (second compound 30 pM): 2950 nM
- IC50 (second compound 94.9 pM): 1040 nM
- IC50 (second compound 0.0003 µM): < 31.6 nM
- IC50 (second compound 0.000949 µM): < 31.6 nM
- IC50 (second compound 0.003 µM): < 31.6 nM
- viability, T/C [1]: 102%
- viability, T/C [2]: 99.6%
- viability, T/C [3]: 96%
- viability, T/C [4]: 86.7%
- viability, T/C [5]: 47.5%
- viability, T/C [6]: 4.01%
- viability, T/C [7]: 99.4%
- viability, T/C [8]: 94.5%
- viability, T/C [9]: 86.4%
- viability, T/C [10]: 50.3%
- viability, T/C [11]: 16.4%
- viability, T/C [12]: 1.62%
- viability, T/C [13]: 31.4%
- viability, T/C [14]: 34.4%
- viability, T/C [15]: 16.9%
- viability, T/C [16]: 4.22%
- viability, T/C [17]: 0.62%
- viability, T/C [18]: 0.12%
- viability, T/C [19]: 2.69%
- viability, T/C [20]: 2.87%
- viability, T/C [21]: 1.76%
- viability, T/C [22]: 0.09%
- viability, T/C [23]: 0.02%
- viability, T/C [24]: 0.14%
- viability, T/C [25]: 0.13%
- viability, T/C [26]: 0.12%
- viability, T/C [27]: 0.14%
- viability, T/C [28]: 0.16%
- viability, T/C [29]: 0.19%
- viability, T/C [30]: 0.27%
